US5397781A, “Pyrimidine derivatives” (Mochida Pharmaceutical Company, Limited, priority 1992, dated 1995)
Where two headings read alike, the source gives them in different places.

Legend:
ACAT = target: T1, ACAT (Rattus norvegicus, UniProt Q7TQM4); test: Inhibitory effect on microsomal ACAT activity in rat liver; type: biochemical; conditions: rat liver microsomes; read-out: IC50 (50% inhibition of cholesterol esterification)
T1 construct: Liver microsomes as an enzyme sample of ACAT were prepared from overnight-fasted male rats; from tissue; host or cells: liver of overnight-fasted male rats, 6 weeks old; microsomes
T1 sequence (Q7TQM4 1-524): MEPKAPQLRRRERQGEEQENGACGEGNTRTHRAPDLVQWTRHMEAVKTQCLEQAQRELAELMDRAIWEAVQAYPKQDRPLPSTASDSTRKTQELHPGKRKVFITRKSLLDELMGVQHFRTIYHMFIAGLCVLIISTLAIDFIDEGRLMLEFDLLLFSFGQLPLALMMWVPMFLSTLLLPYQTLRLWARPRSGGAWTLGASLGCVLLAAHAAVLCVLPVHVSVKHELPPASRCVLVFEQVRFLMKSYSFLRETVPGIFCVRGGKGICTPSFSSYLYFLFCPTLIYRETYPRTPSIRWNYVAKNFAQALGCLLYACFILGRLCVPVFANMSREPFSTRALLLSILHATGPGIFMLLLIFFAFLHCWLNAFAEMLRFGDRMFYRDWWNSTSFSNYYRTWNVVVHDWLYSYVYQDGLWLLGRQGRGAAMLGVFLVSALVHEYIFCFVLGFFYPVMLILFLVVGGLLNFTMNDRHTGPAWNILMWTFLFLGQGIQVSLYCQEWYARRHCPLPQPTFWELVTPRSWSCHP

macrophages = test: Inhibitory effect on cholesteryl ester accumulation in macrophages; type: cell-based, mouse (ddy-family male mice); conditions: Macrophage, read-out: Inhibition activity on cholesteryl ester accumulation (IC50 grade)
Experimental: Inhibitory effect on cholesteryl ester accumulation in macrophages.
Namely resident peritoneal cells suspended in phosphate-buffered saline (PBS) were plated in plastic Petri dishes (35 mm×10 mm) at a density of 2×10^6 cells. The adherent macrophages were cultured overnight at 37° C. in Dalbecco's modified Eagle medium (DME) containing 10% fetal bovine serum (FCS) under humidified 5% CO2. […] After discarding the medium, each macrophage monolayer was washed with PBS and lipids were extracted with hexane/isopropyl alcohol (3:2). Cholesteryl esters in the extract were separated by thin-layer chromatography and the radioactivity was measured by liquid scintillation counter.

serum total cholesterol = test: Hypocholesterolemic effect on cholesterol feeding rats; type: in vivo, male Wistar rats; conditions: Rattus norvegicus, oral, high cholesterol diet rats, read-out: % reduction of serum total cholesterol; for inhibition in vivo at 30 mg/kg: 30 mg/kg/day; for inhibition in vivo at 10 mg/kg: 10 mg/kg/day
Experimental: Hypocholesterolemic effect on cholesterol feeding rats. Male Wistar rats aged 7 weeks old were fed a diet (CE®) supplemented with 2%(w/w) cholesterol, 0.5%(w/w) sodium cholate, 10%(w/w) lard, 0.2%(w/w) propylthiouracyl and 5%(w/w) sucrose, for 3 days. Following 3 days, the compounds of the present invention were administered orally, and the animals were maintained with the high cholesterol diet. On the next day of final drug administration, blood was drown and serum total cholesterol-levels were measured enzymatically by autoanalyzer. CL277082 was used as a reference compound.

[1] = mouse peritoneal macrophages, β-VLDL, [3H]oleic acid, 3 hrs

| Compound | IC50 (ACAT) | further results |
| --- | --- | --- |
| CCCN(CCCC(=O)Nc1c(SC)nc(C)nc1N(C)C)c1ccccc1 [Example 219, N-[4-(N,N-dimethylamino)-2-methyl-6-methylthiopyrimidin-5-yl]-4-(N-phenyl-N-propylamino)butanamide] | 130 nM | IC50 (macrophages; [1]): 100 to 1000 nM |
| CCCN(CCCC(=O)Nc1c(S)ncnc1N(CCC)c1ccccc1)c1ccccc1 [Example 149, N-[4-mercapto-6-(N-phenyl-N-propylamino)pyrimidin-5-yl]-(N-phenyl-N-propylamino)butanamide] | 140 nM | inhibition in vivo at 30 mg/kg (serum total cholesterol): 21% |
| CCCN(CCC(=O)Nc1c(SC)nc(C)nc1N(CC)CC)c1ccccc1 [Example 216, N-[4-(N,N-diethylamino)-2-methyl-6-methylthiopyrimidin-5-yl]-3-(N-phenyl-N-propylamino)propionamide] | 120 nM | inhibition in vivo at 100 mg/kg (serum total cholesterol; 100 mg/kg/day): 33% |
| CCCN(CCCC(=O)Nc1c(S)nc(C)nc1N(CC)CC)c1ccc(F)cc1F [Example 180, N-[4-(N,N-diethylamino)-6-mercapto-2-methylpyrimidin-5-yl]-4-[N-(2,4-difluorophenyl)-N-propylamino]butanamide] | 200 nM | – |
| CCCN(CCCC(=O)Nc1c(SC)nc(C)nc1N(CCC)c1ccccc1)c1ccccc1 [Example 218, N-[2-methyl-4-methylthio-6-(N-phenyl-N-propylamino)pyrimidin-5-yl]-4-(N-phenyl-N-propylamino)butanamide] | 430 nM | – |
| CCCCN(CCCC)c1nc(C)nc(S)c1NC(=O)CCCN(CCC)c1ccccc1 [Example 146, N-[4-(N,N-dibutylamino)-6-mercapto2-methylpyrimidin-5-yl]-4-(N-phenyl-N-propylamino)butanamide] | 110 nM | – |
| CCCCCCCN(CCCC(=O)Nc1c(S)nc(C)nc1N(CC)CC)Cc1ccccc1 [Example 182, 4-(N-benzyl-N-heptylamino)-N-[4-(N,N-diethylamino)-6-mercapto-2-methylpyrimidin-5-yl]butanamide] | 220 nM | – |
| CCCCCCN(CCCC(=O)Nc1c(OC)nc(C)nc1N(CCC)CCC)c1ccccc1 [Example 167, N-[4-(N,N-dipropylamino)-6-methoxy-2-methylpyrimidin-5-yl]-4-(N-hexyl-N-phenylamino)butanamide] | 43 nM | – |
| CCCN(CCCCC(=O)Nc1c(S)nc(C)nc1N(CCC)CCC)c1ccccc1 [Example 188, N-[4-(N,N-dipropylamino)-6-mercapto-2-methylpyrimidin-5-yl]-5-(N-phenyl-N-propylamino)pentanamide] | 35 nM | – |
| CCCCCCN(CCCC(=O)Nc1c(S)nc(C)nc1N(CCC)CCC)c1ccccc1 [Example 156, N-[4-(N,N-dipropylamino)-6-mercapto-2-methylpyrimidin-5-yl]-4-(N-hexyl-N-phenylamino)butanamide] | 38 nM | – |
| CCCN(CCCCC(=O)Nc1c(S)nc(C)nc1N(CC)CC)c1ccccc1 [Example 187, N-[4-(N,N-diethylamino)-6-mercapto-2-methylpyrimidin-5-yl]-5-(N-phenyl-N-propylamino)pentanamide] | 47 nM | – |
| CCCCCCCN(Cc1ccccc1)c1nc(C)nc(S)c1NC(=O)CCCN(CCC)c1ccccc1 [Example 148, N-[4-(N-benzyl-N-heptylamino)-6-mercapto-2-methylpyrimidin-5-yl]-4-(N-phenyl-N propylamino)butanamide] | 55 nM | IC50 (macrophages; [1]): 10 to 100 nM |
| CCCN(CC(=O)Nc1c(S)nc(C)nc1N(CC)CC)c1ccccc1 [Example 133, N-[4-(N,N-diethylamino)-6-mercapto-2-methylpyrimidin-5-yl]-2-(N-phenyl-N-propylamino)acetamide] | 260 nM | – |
| CCCCCCCN(Cc1ccc(CC(C)(C)C)cc1)C(=O)Nc1ccc(F)cc1F [CL277082, (N'-2,4-difluorophenyl)-N-[[4-(2,2-dimethylpropyl)phenyl]methyl]-N-heptylurea, reference compound] | – | inhibition in vivo at 30 mg/kg (serum total cholesterol): 52%; IC50 (macrophages; Mus musculus, 3 h): 1000 to 10000 nM |
| CCCN(CCCCC(=O)Nc1c(S)nc(C)nc1N(CCC)c1ccccc1)c1ccccc1 [Example 185, N-[4-mercapto-2-methyl-6-(N-phenyl-N-propylamino)pyrimidin-5-yl]-5-(N-phenyl-N-propylamino)pentanamide] | 79 nM | – |

Further lines, with some results ahead:

| IC50 (ACAT) | Compound | further results |
| --- | --- | --- |
| 19 nM | CCCCCCN(CCCC(=O)Nc1c(SC)nc(C)nc1N(CC)CC)c1ccccc1 [Example 225, N-[4-(N,N-diethylamino)-2-methyl-6-methylthiopyrimidin-5-yl]-4-(N-hexyl-N-phenylamino)butanamide] | inhibition in vivo at 10 mg/kg (serum total cholesterol): 64%; IC50 (macrophages; [1]): 10 to 100 nM |
| 29 nM | CCCCN(CCCC)c1nc(C)nc(SC)c1NC(=O)CCCN(CCC)c1ccccc1 [Example 221, N-[4-(N,N-dibutylamino)-2-methyl-6-methylthiopyrimidin-5-yl]-4-(N-phenyl-N-propylamino)butanamide] | IC50 (macrophages; [1]): 10 to 100 nM |
| 170 nM | CCCN(CCCC(=O)Nc1c(C(C)C)nc(C)nc1N(CC)CC)c1ccccc1 [Example 266, N-[4-(N,N-diethylamino)-6-isopropyl-2-methylpyrimidin-5-yl]-4-(N-phenyl-N-propylamino)butanamide] | – |
| 23 nM | CCCCCCN(CCCC(=O)Nc1c(SCCC)nc(C)nc1N(CC)CC)c1ccccc1 [Example 261, N-[4-(N,N-dietylamino)-2-methyl-6-propylthiopyrimidin-5-yl]-4-(N-hexyl-N-phenylamino)butanamide] | – |
| 220 nM | CCCN(CCCC(=O)Nc1c(SC)nc(C)nc1N(CC)CC)Cc1ccccc1 [Example 242, 4-(N-benzyl-N-propylamino)-N-[4-(N,N-diethylamino)-2-methyl-6-methylthiopyrimidin-5-yl]butanamide] | – |
| 32 nM | CCCCCCCCCCN(CCCC(=O)Nc1c(SC)nc(C)nc1N(CC)CC)c1ccccc1 [Example 236, 4-(N-decyl-N-phenylamino)-N-[4-(N,N-diethylamino)-2-methyl-6-methylthiopyrimidin-5-yl]butanamide] | – |
| 52 nM | CCCN(CCCC(=O)Nc1c(SC)nc(C)nc1N(CC)CC)c1ccccc1 [Example 220, N-[4-(N,N-diethylamino)-2-methyl-6-methylthiopyrimidin-5-yl]-4-(N-phenyl-N-propylamino)butanamide] | inhibition in vivo at 30 mg/kg (serum total cholesterol): 23%; IC50 (macrophages; [1]): 100 to 1000 nM |
| 230 nM | CCCN(CCCC(=O)Nc1c(SCc2ccccc2)nc(C)nc1N(CCC)c1ccccc1)c1ccccc1 [Example 258, N-[4-benzylthio-2-methyl-6-(N-phenyl-N-propylamino)pyrimidin-5-yl]-4-(N-phenyl-N-propylamino)butanamide] | – |
| 95 nM | CCCCCCCN(CCCC(=O)Nc1c(SC)nc(C)nc1N(CC)CC)Cc1ccccc1 [Example 243, 4-(N-benzyl-N-heptylamino)-N-[4-(N,N-diethylamino)-2-methyl-6-methylthiopyrimidin-5-yl]butanamide] | – |
| 56 nM | CCCN(CCCC(=O)Nc1c(SC)nc(C)nc1C(C)C)c1ccccc1 [Example 268, N-(4-isopropyl-2-methyl-6-methylthiopyrimidin-5-yl)-4-(N-phenyl-N-propylamino)butanamide] | – |
| 160 nM | CCCCCCCN(Cc1ccccc1)c1nc(C)nc(SC)c1NC(=O)CCCCN(CCC)c1ccccc1 [Example 249, N-[4-(N-benzyl-N-heptylamino)-2-methyl-6-methylthiopyrimidin-5-yl]-5-(N-phenyl-N-propylamino)pentanamide] | IC50 (macrophages; [1]): 100 to 1000 nM |
| 110 nM | CCCN(CCCC(=O)Nc1c(SC)nc(C)nc1N(CC)CC)c1ccc(OC)cc1 [Example 238, N-[4-(N,N-diethylamino)-2-methyl-6-methylthiopyrimidin-5-yl]-4-[N-(4-methoxyphenyl)-N-propylamino)butanamide] | inhibition in vivo at 10 mg/kg (serum total cholesterol): 65%; IC50 (macrophages; [1]): 100 to 1000 nM |
| 83 nM | CCCCc1ccc(N(CCC)CCCC(=O)Nc2c(SC)nc(C)nc2N(CC)CC)cc1 [Example 237, 4-[N-(4-butylphenyl)-N-propylamino]-N-[4-(N,N-diethylamino)-2-methyl-6-methylthiopyrimidin-5-yl]butanamide] | – |
